Data as given in patent US20210363254A1, “PHARMACEUTICAL COMBINATIONS” (Novartis AG, priority 2018, published 2021).
Like-named read-outs stand apart in the source and are kept apart here.

COc1ncc(-c2nc3c(n2C(C)C)[C@H](c2ccc(Cl)cc2)N(c2cc(Cl)cn(C)c2=O)C3=O)c(OC)n1 [HDM201, (S)-5-(5-Chloro-1-methyl-2-oxo-1,2-dihydro-pyridin-3-yl)-6-(4-chloro-phenyl)-2-(2,4-dimethoxy-pyrimidin-5-yl)-1-isopropyl-5,6-dihydro-1H-pyrrolo[3,4-d]imidazol-4-one]
Hyperkalaemia, Grade 3/4 (1B 200 mg, N=3): 0 n (%)
Hypocalcaemia, All Grades (1B 200 mg, N=3): 0 n (%)
Hypocalcaemia, Grade 3/4 (1B 200 mg, N=3): 0 n (%)
Influenza Like Illness, All Grades (1B 200 mg, N=3): 0 n (%)
Influenza Like Illness, Grade 3/4 (1B 200 mg, N=3): 0 n (%)
Lethargy, All Grades (1B 200 mg, N=3): 0 n (%)
Lethargy, Grade 3/4 (1B 200 mg, N=3): 0 n (%)
Leukopenia, All Grades (1B 200 mg, N=3): 0 n (%)
Leukopenia, Grade 3/4 (1B 200 mg, N=3): 0 n (%)
Lipase Increased, All Grades (1B 200 mg, N=3): 1 (33.3) n (%)
Lipase Increased, Grade 3/4 (1B 200 mg, N=3): 1 (33.3) n (%)
Lymphopenia, All Grades (1B 200 mg, N=3): 0 n (%)
Lymphopenia, Grade 3/4 (1B 200 mg, N=3): 0 n (%)
Monocytosis, All Grades (1B 200 mg, N=3): 0 n (%)
Monocytosis, Grade 3/4 (1B 200 mg, N=3): 0 n (%)
Musculoskeletal Pain, All Grades (1B 200 mg, N=3): 0 n (%)
Musculoskeletal Pain, Grade 3/4 (1B 200 mg, N=3): 0 n (%)
Myalgia, All Grades (1B 200 mg, N=3): 0 n (%)
Myalgia, Grade 3/4 (1B 200 mg, N=3): 0 n (%)
Nausea, All Grades (1B 200 mg, N=3): 1 (33.3) n (%)
Nausea, Grade 3/4 (1B 200 mg, N=3): 0 n (%)
Neuralgia, All Grades (1B 200 mg, N=3): 0 n (%)
Neuralgia, Grade 3/4 (1B 200 mg, N=3): 0 n (%)
Neutropenia, All Grades (1B 200 mg, N=3): 0 n (%)
Neutropenia, Grade 3/4 (1B 200 mg, N=3): 0 n (%)
Neutrophil Count Decreased, All Grades (1B 200 mg, N=3): 0 n (%)
Neutrophil Count Decreased, Grade 3/4 (1B 200 mg, N=3): 0 n (%)
Oedema, All Grades (1B 200 mg, N=3): 1 (33.3) n (%)
Oedema, Grade 3/4 (1B 200 mg, N=3): 0 n (%)
Oral Candidiasis, All Grades (1B 200 mg, N=3): 0 n (%)
Oral Candidiasis, Grade 3/4 (1B 200 mg, N=3): 0 n (%)
Platelet Count Decreased, All Grades (1B 200 mg, N=3): 0 n (%)
Platelet Count Decreased, Grade 3/4 (1B 200 mg, N=3): 0 n (%)
Pruritus, All Grades (1B 200 mg, N=3): 0 n (%)
Pruritus, Grade 3/4 (1B 200 mg, N=3): 0 n (%)
Thrombocytopenia, All Grades (1B 200 mg, N=3): 0 n (%)
Thrombocytopenia, Grade 3/4 (1B 200 mg, N=3): 0 n (%)
Total, All Grades (1B 200 mg, N=3): 3 (100) n (%)
Total, Grade 3/4 (1B 200 mg, N=3): 1 (33.3) n (%)
Vomiting, All Grades (1B 200 mg, N=3): 0 n (%)
Vomiting, Grade 3/4 (1B 200 mg, N=3): 0 n (%)
Weight Decreased, All Grades (1B 200 mg, N=3): 0 n (%)
Weight Decreased, Grade 3/4 (1B 200 mg, N=3): 0 n (%)
White Blood Cell Count Decreased, All Grades (1B 200 mg, N=3): 0 n (%)
White Blood Cell Count Decreased, Grade 3/4 (1B 200 mg, N=3): 0 n (%)
Abdominal Pain, All Grades (1B all subjects, N=20): 3 n (%)
Abdominal Pain, Grade 3/4 (1B all subjects, N=20): 0 n (%)
Alanine Aminotransferase Increased, All Grades (1B all subjects, N=20): 1 n (%)
Alanine Aminotransferase Increased, Grade 3/4 (1B all subjects, N=20): 0 n (%)
Alopecia, All Grades (1B all subjects, N=20): 1 n (%)
Alopecia, Grade 3/4 (1B all subjects, N=20): 0 n (%)
Amylase Increased, All Grades (1B all subjects, N=20): 1 n (%)
Amylase Increased, Grade 3/4 (1B all subjects, N=20): 0 n (%)
Anaemia, All Grades (1B all subjects, N=20): 5 n (%)
Anaemia, Grade 3/4 (1B all subjects, N=20): 0 n (%)
Asthenia, All Grades (1B all subjects, N=20): 2 n (%)
Asthenia, Grade 3/4 (1B all subjects, N=20): 0 n (%)
Blood Bilirubin Increased, All Grades (1B all subjects, N=20): 1 n (%)
Blood Bilirubin Increased, Grade 3/4 (1B all subjects, N=20): 0 n (%)
Blood Creatine Phosphokinase Increased, All Grades (1B all subjects, N=20): 2 n (%)
Blood Creatine Phosphokinase Increased, Grade 3/4 (1B all subjects, N=20): 1 n (%)
Blood Creatinine Increased, All Grades (1B all subjects, N=20): 2 n (%)
Blood Creatinine Increased, Grade 3/4 (1B all subjects, N=20): 0 n (%)
Decreased Appetite, All Grades (1B all subjects, N=20): 4 n (%)
Decreased Appetite, Grade 3/4 (1B all subjects, N=20): 0 n (%)
Dehydration, All Grades (1B all subjects, N=20): 1 n (%)
Dehydration, Grade 3/4 (1B all subjects, N=20): 0 n (%)
Diarrhoea, All Grades (1B all subjects, N=20): 5 n (%)
Diarrhoea, Grade 3/4 (1B all subjects, N=20): 0 n (%)
Dry Skin, All Grades (1B all subjects, N=20): 1 n (%)
Dry Skin, Grade 3/4 (1B all subjects, N=20): 0 n (%)
Dysgeusia, All Grades (1B all subjects, N=20): 1 n (%)
Dysgeusia, Grade 3/4 (1B all subjects, N=20): 0 n (%)
Eye Pain, All Grades (1B all subjects, N=20): 1 n (%)
Eye Pain, Grade 3/4 (1B all subjects, N=20): 0 n (%)
Fatigue, All Grades (1B all subjects, N=20): 4 n (%)
Fatigue, Grade 3/4 (1B all subjects, N=20): 1 n (%)
Folliculitis, All Grades (1B all subjects, N=20): 1 n (%)
Folliculitis, Grade 3/4 (1B all subjects, N=20): 0 n (%)
Gamma-Glutamyltransferase Increased, All Grades (1B all subjects, N=20): 1 n (%)
Gamma-Glutamyltransferase Increased, Grade 3/4 (1B all subjects, N=20): 0 n (%)
Headache, All Grades (1B all subjects, N=20): 1 n (%)
Headache, Grade 3/4 (1B all subjects, N=20): 0 n (%)
Hyperkalaemia, All Grades (1B all subjects, N=20): 1 n (%)
Hyperkalaemia, Grade 3/4 (1B all subjects, N=20): 0 n (%)
Hypocalcaemia, All Grades (1B all subjects, N=20): 1 n (%)
Hypocalcaemia, Grade 3/4 (1B all subjects, N=20): 0 n (%)
Influenza Like Illness, All Grades (1B all subjects, N=20): 1 n (%)
Influenza Like Illness, Grade 3/4 (1B all subjects, N=20): 0 n (%)
Lethargy, All Grades (1B all subjects, N=20): 1 n (%)
Lethargy, Grade 3/4 (1B all subjects, N=20): 0 n (%)
Leukopenia, All Grades (1B all subjects, N=20): 2 n (%)
Leukopenia, Grade 3/4 (1B all subjects, N=20): 1 n (%)
Lipase Increased, All Grades (1B all subjects, N=20): 4 n (%)
Lipase Increased, Grade 3/4 (1B all subjects, N=20): 3 n (%)
Lymphopenia, All Grades (1B all subjects, N=20): 2 n (%)
Lymphopenia, Grade 3/4 (1B all subjects, N=20): 1 n (%)
Monocytosis, All Grades (1B all subjects, N=20): 1 n (%)
Monocytosis, Grade 3/4 (1B all subjects, N=20): 0 n (%)
Musculoskeletal Pain, All Grades (1B all subjects, N=20): 1 n (%)
Musculoskeletal Pain, Grade 3/4 (1B all subjects, N=20): 0 n (%)
Myalgia, All Grades (1B all subjects, N=20): 1 n (%)
Myalgia, Grade 3/4 (1B all subjects, N=20): 0 n (%)
Nausea, All Grades (1B all subjects, N=20): 12 n (%)
